Test systems include 786-0 renal; A549 NSCLC; EKVX NSCLC; HT29 colon; KM12 colon; RPMI-8226 leukemia; SF-268 CNS; SK-MEL-5 melanoma; MCF7 breast.
Common to all, as to assay: inhibition of tumour cell growth, NCI panel, 48 h

Structures are written as SMILES.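 Compound exposure: 48 hours, 5 concentrations, 96-well plates. GI50: concentration for 50% inhibition of growth. TGI marks complete inhibition of growth.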

Regarding `CC[C@@H]1C[C@H]2CC3c4[nH]c5ccc(O)cc5c4CCN(C2)C31`, the TGI with 786-0 renal, with A549 NSCLC, with EKVX NSCLC, in the assay with HT29 colon, with KM12 colon and with RPMI-8226 leukemia was greater than 100 µM each time. For the same compound, the TGI in the assay with SF-268 CNS was greater than 100 µM.
For the compound `Cc1nn(-c2nc3ccccc3s2)c2c1C(=O)c1ccccc1-2`, the TGI with 786-0 renal, with A549 NSCLC, in the assay with EKVX NSCLC, in the assay with HT29 colon, with KM12 colon and in the assay with RPMI-8226 leukemia was greater than 100 µM in each case. The TGI in the assay with SF-268 CNS and in the assay on SK-MEL-5 melanoma was greater than 100 µM throughout.
Take `O=C(NC1C2CC3CC(C2)CC1C3)c1cc(/C=C/c2ccccc2)[nH]c(=S)n1` (stereo unspecified): the TGI in the assay with 786-0 renal, in the assay with A549 NSCLC, with EKVX NSCLC, in the assay with KM12 colon, in the assay with RPMI-8226 leukemia and with SF-268 CNS was greater than 100 µM each time. Further, the TGI with SK-MEL-5 melanoma is greater than 100 µM.
For `O=C(COC(=O)c1cccc2c(=O)c3ccccc3[nH]c12)Nc1ccccc1`, the TGI in the assay with 786-0 renal was greater than 100 µM; with A549 NSCLC it was greater than 100 µM; with EKVX NSCLC it was greater than 100 µM; with HT29 colon, greater than 100 µM; in the assay with KM12 colon it was 54.1 µM; with RPMI-8226 leukemia, 83.5 µM. The TGI in the assay on SF-268 CNS was greater than 100 µM; in the assay on SK-MEL-5 melanoma, 42.7 µM.
As for `Cc1cn2c(/C=N/N=C(N)N)c(-c3cccnc3)nc2s1`, the GI50 in the assay on 786-0 renal is 12.9 µM; in the assay on A549 NSCLC, 16.3 µM; with EKVX NSCLC it was 16.7 µM; with HT29 colon, 4.18 µM; with KM12 colon it was 1.58 µM; in the assay with MCF7 breast it was 20.8 µM. Further, the GI50 was 8.91 µM in the assay with RPMI-8226 leukemia, 12.9 µM in the assay with SF-268 CNS and 2.68 µM with SK-MEL-5 melanoma. Moreover, the TGI in the assay with 786-0 renal was 26.8 µM; in the assay on A549 NSCLC, 56.1 µM; with EKVX NSCLC, 36.3 µM; in the assay on HT29 colon it was 16.1 µM; in the assay on KM12 colon, 7.21 µM; in the assay on MCF7 breast, greater than 100 µM. In addition, the TGI was found to be 58.9 µM with RPMI-8226 leukemia, 35.8 µM in the assay on SF-268 CNS and 13.7 µM with SK-MEL-5 melanoma.
In the case of `COc1ccc(OC(C(=O)O)c2ccccc2)c2c1CCCC2=O` (stereo unspecified), the TGI with 786-0 renal, in the assay on A549 NSCLC, with EKVX NSCLC, in the assay with HT29 colon, in the assay with KM12 colon and in the assay with RPMI-8226 leukemia was greater than 100 µM throughout. Also, the TGI with SF-268 CNS and in the assay with SK-MEL-5 melanoma was greater than 100 µM throughout.
Turning to `NCCN1C(=O)C2C3c4ccccc4C(c4ccccc43)C2C1=O` (stereo unspecified), the TGI with 786-0 renal, with A549 NSCLC, in the assay with EKVX NSCLC, with HT29 colon, in the assay with KM12 colon and with RPMI-8226 leukemia was greater than 100 µM throughout. Further, the TGI in the assay on SF-268 CNS and in the assay on SK-MEL-5 melanoma was greater than 100 µM each time.
Turning to `Cc1nn(C)cc1P(=S)(c1ccccc1)c1ccccc1`, the TGI in the assay on 786-0 renal, with A549 NSCLC, in the assay on EKVX NSCLC, in the assay on HT29 colon, in the assay with KM12 colon and in the assay on RPMI-8226 leukemia was greater than 100 µM in each case. Moreover, the TGI in the assay with SF-268 CNS and in the assay with SK-MEL-5 melanoma was greater than 100 µM each time.
For `CC(C)(C)OC(=O)NC(CO)c1cccc(OCc2ccccc2)c1` (stereo unspecified), the TGI in the assay with 786-0 renal, with A549 NSCLC, with EKVX NSCLC, in the assay with HT29 colon, in the assay on KM12 colon and with RPMI-8226 leukemia was greater than 100 µM throughout. In addition, the TGI with SF-268 CNS and with SK-MEL-5 melanoma was greater than 100 µM in each case.
Take `O=C(NCC(O)CNC(=O)C(F)(F)F)C(F)(F)F`: the TGI in the assay on 786-0 renal, with A549 NSCLC, in the assay on EKVX NSCLC, in the assay on HT29 colon, with KM12 colon and in the assay with RPMI-8226 leukemia was greater than 100 µM each time. In addition, the TGI with SF-268 CNS and with SK-MEL-5 melanoma was greater than 100 µM throughout.
Take `NC(N)=NS(=O)(=O)c1ccc(Nc2c3ccccc3nc3c(C(=O)Nc4ccc(S(N)(=O)=O)cc4)ccc(Cl)c23)cc1`: the TGI with 786-0 renal, in the assay with A549 NSCLC, in the assay with EKVX NSCLC, in the assay on HT29 colon, in the assay with KM12 colon and in the assay with RPMI-8226 leukemia was greater than 100 µM throughout. The TGI in the assay on SF-268 CNS and with SK-MEL-5 melanoma was greater than 100 µM each time.
In the case of `N#C/C(=C/Sc1ccccc1)C(=O)O`, the TGI in the assay with 786-0 renal is 77.9 µM; with A549 NSCLC it was greater than 100 µM; in the assay with EKVX NSCLC, greater than 100 µM; in the assay on HT29 colon, 84.1 µM; with KM12 colon, 99.3 µM; in the assay with RPMI-8226 leukemia, greater than 100 µM. Further, the TGI was 53.7 µM with SF-268 CNS and greater than 100 µM in the assay on SK-MEL-5 melanoma.
Consider `N#CCC(=O)N/N=C(\C(=O)Nc1ccc(Cl)c(Cl)c1)C1CN(c2ccccc2)N=C1N` (stereo unspecified), for which the TGI in the assay on 786-0 renal, in the assay on A549 NSCLC, with EKVX NSCLC, in the assay on HT29 colon, in the assay on KM12 colon and in the assay with RPMI-8226 leukemia was greater than 100 µM in each case. For the same compound, the TGI in the assay on SF-268 CNS and in the assay with SK-MEL-5 melanoma was greater than 100 µM throughout.
In the case of `O=c1oc(=O)c2oc3ccccc3oc1=2`, the TGI in the assay on 786-0 renal, in the assay on A549 NSCLC, in the assay on EKVX NSCLC, in the assay on HT29 colon, in the assay on KM12 colon and with SF-268 CNS was greater than 100 µM each time.
Turning to `Clc1cc2n[se]nc2cc1Cl`, the TGI with 786-0 renal, with A549 NSCLC, in the assay with EKVX NSCLC, with HT29 colon, in the assay on KM12 colon and in the assay on RPMI-8226 leukemia was greater than 100 µM each time. For the same compound, the TGI in the assay with SF-268 CNS and with SK-MEL-5 melanoma was greater than 100 µM in each case.

For the origin of these results see PubChem BioAssay (NCI).
